Calls of active or inactive are those of the source. No cut-off for these calls is given here.
Legend:
A549 = experiment: Antiproliferative activity against human A549 cells after 48 hrs by MTT assay; format: functional; details: A549, 48 h
HeLa [1] = experiment: Cell cycle arrest in human HeLa cells assessed as reduction in accumulation of cells at G1 phase up to 0.4 uM after 24 hrs by propidium iodide staining-based flow cytometric analysis; format: functional
[2] = Cmax in Sprague-Dawley rat at 1.5 mg/kg, iv administered as single dose by LC-MS/MS analysis; format: ADME, organism-based; parameters: dose 1.5 mg/kg, route intravenous; details: in vivo
[3] = Apparent volume of distribution in female Sprague-Dawley rat at 1.5 mg/kg, iv administered as single dose by LC-MS/MS analysis; format: ADME, organism-based; details: in vivo, read-out: Vd(app)
A2780 = experiment: Antiproliferative activity against human A2780 cells after 48 hrs by MTT assay; format: functional; details: A2780, 48 h
HeLa [4] = experiment: Induction of apoptosis in human HeLa cells assessed as late apoptotic cells at 0.05 uM after 24 hrs by Annexin V-FITC/propidium iodide staining-based flow cytometric analysis (reference value: 3.51%); format: functional
[5] = Cmax in female Sprague-Dawley rat at 1.5 mg/kg, iv administered as single dose by LC-MS/MS analysis; format: ADME, organism-based; parameters: dose 1.5 mg/kg, route intravenous; details: in vivo
[6] = Clearance in female Sprague-Dawley rat at 1.5 mg/kg, iv administered as single dose by LC-MS/MS analysis; format: ADME, organism-based; details: in vivo
Tubulin = Tubulin (Sus scrofa, UniProt P02554+P02550); experiment: (§1) Inhibition of porcine brain tubulin polymerization
Tubulin (Sus scrofa) = Tubulin (Sus scrofa) (UniProt P02554+P02550); experiment: as §1
[7] = AUC (0 to infinity) in female Sprague-Dawley rat at 1.5 mg/kg, iv administered as single dose by LC-MS/MS analysis; format: ADME, organism-based; parameters: dose 1.5 mg/kg, time infinity, route intravenous; details: in vivo
Tubulin (Homo sapiens) = Tubulin (Homo sapiens) (UniProt P68371+Q9H4B7+P0DPH7+P68366+Q13509+Q71U36+P04350+Q3ZCM7+P07437+P68363+Q9BQE3+Q6PEY2+Q13885+Q9BVA1+Q9BUF5); experiment: Inhibition of tubulin polymerization in human HeLa cells assessed as induction of mitotic phase arrest at 0.02 uM after 12 hrs by DAPI staining-based confocal fluorescence microscopic analysis; format: cell-based
[8] = Cmax in male Sprague-Dawley rat at 1.5 mg/kg, iv administered as single dose by LC-MS/MS analysis; format: ADME, organism-based; parameters: dose 1.5 mg/kg, route intravenous; details: in vivo
HeLa [9] = experiment: Antitumor activity against human HeLa cells xenografted in nude mouse assessed as tumor growth inhibition at 20 mg/kg, iv administered every other day up to 20 days relative to control; format: functional; details: 480 h, read-out: TGI
MDA-MB-231 = experiment: Antiproliferative activity against human MDA-MB-231 cells after 48 hrs by MTT assay; format: functional; details: MDA-MB-231, 48 h
[10] = Apparent volume of distribution in male Sprague-Dawley rat at 1.5 mg/kg, iv administered as single dose by LC-MS/MS analysis; format: ADME, organism-based; details: in vivo, read-out: Vd(app)
[11] = MRT (0 to t) in Sprague-Dawley rat at 1.5 mg/kg, iv administered as single dose by LC-MS/MS analysis; format: ADME, organism-based; details: in vivo
[12] = MRT (0 to infinity) in Sprague-Dawley rat at 1.5 mg/kg, iv administered as single dose by LC-MS/MS analysis; format: ADME, organism-based; details: in vivo
[13] = Half life in Sprague-Dawley rat at 1.5 mg/kg, iv administered as single dose by LC-MS/MS analysis; format: ADME, organism-based; details: in vivo
HeLa [14] = experiment: Induction of apoptosis in human HeLa cells assessed as necrotic cells at 0.05 uM after 24 hrs by Annexin V-FITC/propidium iodide staining-based flow cytometric analysis (reference value: 0.05%); format: functional
HeLa [15] = experiment: Induction of ROS generation in human HeLa cells at 0.02 to 0.2 uM after 12 hrs by DCFH-DA staining-based flow cytometric analysis; format: functional, cell-based
HeLa [16] = experiment: Induction of apoptosis in human HeLa cells assessed as necrotic cells at 0.1 uM after 24 hrs by Annexin V-FITC/propidium iodide staining-based flow cytometric analysis (reference value: 0.05%); format: functional
HeLa [17] = experiment: Induction of apoptosis in human HeLa cells assessed as viable cells at 0.1 uM after 24 hrs by Annexin V-FITC/propidium iodide staining-based flow cytometric analysis (reference value: 92.8%); format: functional; details: read-out: Activity
[18] = Half life in rat liver microsomes at 5 uM in presence of NADPH regenerating system by LC-MS/MS analysis; format: ADME, Microsome
[19] = AUC (0 to t) in male Sprague-Dawley rat at 1.5 mg/kg, iv administered as single dose by LC-MS/MS analysis; format: ADME, organism-based; details: in vivo

Tubulin (Sus scrofa), sequence (P02550 whole entry, looked up): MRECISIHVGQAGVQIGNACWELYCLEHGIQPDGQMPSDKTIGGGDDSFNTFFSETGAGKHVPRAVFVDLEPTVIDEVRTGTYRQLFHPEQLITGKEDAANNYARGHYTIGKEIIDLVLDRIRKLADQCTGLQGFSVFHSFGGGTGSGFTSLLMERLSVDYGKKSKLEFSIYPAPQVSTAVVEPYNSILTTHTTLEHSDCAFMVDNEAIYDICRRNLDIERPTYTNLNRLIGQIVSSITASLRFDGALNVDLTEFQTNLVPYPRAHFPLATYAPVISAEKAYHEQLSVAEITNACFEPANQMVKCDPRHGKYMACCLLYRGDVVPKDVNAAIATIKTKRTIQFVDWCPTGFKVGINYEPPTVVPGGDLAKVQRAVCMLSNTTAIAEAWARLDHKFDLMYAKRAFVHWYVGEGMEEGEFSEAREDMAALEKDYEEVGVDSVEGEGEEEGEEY
Tubulin (Sus scrofa), sequence (P02554 whole entry, looked up): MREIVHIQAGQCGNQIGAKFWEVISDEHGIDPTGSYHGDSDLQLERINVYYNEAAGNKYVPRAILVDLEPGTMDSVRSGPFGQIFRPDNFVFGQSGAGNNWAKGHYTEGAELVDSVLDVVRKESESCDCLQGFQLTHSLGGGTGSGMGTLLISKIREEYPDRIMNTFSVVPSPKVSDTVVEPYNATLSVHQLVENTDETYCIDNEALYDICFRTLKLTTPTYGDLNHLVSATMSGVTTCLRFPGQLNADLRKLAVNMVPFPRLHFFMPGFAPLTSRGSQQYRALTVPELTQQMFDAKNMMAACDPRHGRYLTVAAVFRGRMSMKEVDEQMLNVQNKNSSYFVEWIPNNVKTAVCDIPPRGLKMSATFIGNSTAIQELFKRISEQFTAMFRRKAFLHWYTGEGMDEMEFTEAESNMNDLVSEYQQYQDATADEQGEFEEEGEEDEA

For `COC(=O)N1N=C(c2cccc(C)c2)CC1c1cc(OC)c(OC)c(OC)c1` (stereo not given), the GI50 (A549) was 300 nM, the Activity (HeLa [1]) was “Active” and the Cmax [2] was 594 ng/mL. For the same molecule, the Vd [3] was 6.24 L/kg, the GI50 (A2780) was 600 nM and the Activity (HeLa [4]) was 4.95%. The Cmax [5] was 531 ng/mL, the clearance [6] was 79.7 mL/min/kg and the IC50 (Tubulin) was 1490 nM. The inhibition (Tubulin (Sus scrofa)) was “Dose-dependent effect”, the AUC(0-inf) [7] was 336 ng·h/mL and the Activity (Tubulin (Homo sapiens)) was “Active”. It also gave a Cmax [8] of 658 ng/mL, an inhibition in vivo at 20 mg/kg (HeLa [9]) of 72.9% and a GI50 (MDA-MB-231) of 140 nM. It also gave a Vd [10] of 3.82 L/kg, an MRT last [11] of 54.6 min and an MRT inf [12] of 65.4 min. For the same molecule, the half-life [13] was 54 min, the Activity (HeLa [14]) was 0.46% and the Activity (HeLa [15]) was “Active”. The Activity (HeLa [16]) was 0.829%, the viability at 0.1 µM (HeLa [17]) was 75.8% and the half-life at 5 µM [18] was 37 min. For the same molecule, the AUC(0-t) [19] was 475 ng·h/mL.

— ChEMBL document CHEMBL4411299, “A class of novel tubulin polymerization inhibitors exert effective anti-tumor activity via mitotic catastrophe” (Eur J Med Chem, 2019)
